Results taken from PubChem BioAssay AID2060513 (Molecular Pharmacology Branch, DTP, NCI, 2025).

Test system: 299254-011-R-J1-PDC complex spheroids viability
Experiment: Anticancer human tumor 299254-011-R-J1-PDC patient-derived melanoma cell line growth inhibition [GQUAD]
Conditions: for IC50: curve of first compound; for viability, T/C: stronger effect = lower value
Excerpt: DNA G-quadruplex Stabilizer Agents in Combinations in Complex Spheroids
A high-throughput screen of multi-cell type tumor spheroids was designed to identify active combinations of DNA G-quadruplex stabilizer agents and targeted small molecules. Complex spheroids include a stromal component modeled by human endothelial cells (HUVEC) and fibroblasts modeled by human mesenchymal stem cells (MSCs). The concentration ranges selected for each drug and investigational agent were based upon clinically achievable concentrations if the clinical Cmax of the agent was known.
Compounds. The drugs and investigational agents: pidnarulex (CX-5461; NSC782164), APTO-253 (NSC789042), BRACO-19 (NSC847499), peposertib (NSC802822), ceralasertib (NSC780249), elimusertib (NSC800525), camonsertib (NSC841442), AZD-1390 (NSC803789), olaparib (NSC753686), talazoparib (NSC767125), ART-558 (NSC835418), sotorasib (NSC818433), MRTX-1133 (NSC836407), SN-38 (NSC673596), topotecan (NSC609699), etoposide (NSC141540), doxorubicin (NSC123127), gemcitabine (NSC613327), 5-fluorouracil (NSC19893), paclitaxel (NSC125973), vemurafenib (NSC761431), panobinostat (NSC761190), R-306465 (JNJ-16241199; NSC773264), adavosertib (NSC754352), TP-3654 (NSC805149), carboplatin (NSC241240), KSQ-4279 (NSC840948), and staurosporine (NSC755774) were obtained from the National Cancer Institute (NCI) Developmental Therapeutics Program Chemical Repository (34). The FDA-approved anticancer drug set is available from the NCI Developmental Therapeutics Program. […] The stock solutions were prepared in dimethyl sulfoxide (DMSO, Sigma-Aldrich, St. Louis, MO, cat. D2650) at 800-fold the tested concentration and stored at -70 degrees C prior to their use. All drugs and investigational agents were tested over a range starting from a high concentration at or near the clinical Cmax and decreasing in half-log increments. If the clinical Cmax for an agent had not been determined, the highest concentration tested was 10 microM.
2.3 Cell Culture. All cells were maintained in an incubator at 37 degrees C and 5% CO2 with 95% humidity. The PDC lines were cultured according to standard operating procedures established by the NCI PDMR. All PDCs were thawed and cultured in Matrigel-coated flasks prepared with a working solution of 1X Ham's F-12 nutrient mix, without supplementation (Invitrogen, cat. 11765054), 100 U/mL penicillin-streptomycin (Invitrogen, cat. 15140122), and 2.5% Matrigel (Corning Inc., cat. 354248) for the first three passages. The 857933-349-R-J2-PDC line was cultured in 6C/Colon 1B media, which includes advanced DMEM/F-12 (Thermo Fisher Scientific, cat. 12634028), 10 mM HEPES (Thermo Fisher Scientific, cat. 15630080), 1X GlutaMAX supplement (Thermo Fisher Scientific, cat. 35050061), 0.1 mg/mL primocin (InvivoGen, cat. ant-pm-2), 10% defined fetal bovine serum, heat inactivated (HyClone Laboratories Inc., cat. SH30070.03HI), 50% L-WRN conditioned media (ATCC, cat. CRL-3276), 1.25 mM N-Acetyl-L-cysteine (Sigma-Aldrich, cat. A9165), 10 mM nicotinamide (Sigma-Aldrich, cat. N0636), 1X B-27 supplement (Thermo Fisher Scientific, cat. 17504044), 1X N-2 supplement (Thermo Fisher Scientific, cat. 17502048), 10 microM Y-27632 dihydrochloride (Tocris Bioscience, cat. 1254), and 50 ng/mL human EGF recombinant protein (Thermo Fisher Scientific, cat. PHG0311). The 485176-168-R4-J1-PDC line was cultured in Panc media, which includes all 6C/Colon 1B media components plus 100 ng/mL human FGF-10 (Thermo Fisher Scientific, cat. 100-26), 500 nM SB-431542 (Selleckchem, cat. S1067), and gastrin (Tocris, cat. 3006).
[…]

[1] = second compound 0.0316 µM, first compound 0.0316 µM
[2] = second compound 0.0316 µM, first compound 0.1 µM
[3] = second compound 0.0316 µM, first compound 0.316 µM
[4] = second compound 0.0316 µM, first compound 1 µM
[5] = second compound 0.0316 µM, first compound 3.16 µM
[6] = second compound 0.0316 µM, first compound 10 µM
[7] = second compound 0.1 µM, first compound 0.0316 µM
[8] = second compound 0.1 µM, first compound 0.1 µM
[9] = second compound 0.1 µM, first compound 0.316 µM
[10] = second compound 0.1 µM, first compound 1 µM
[11] = second compound 0.1 µM, first compound 3.16 µM
[12] = second compound 0.1 µM, first compound 10 µM
[13] = second compound 0.316 µM, first compound 0.0316 µM
[14] = second compound 0.316 µM, first compound 0.1 µM
[15] = second compound 0.316 µM, first compound 0.316 µM
[16] = second compound 0.316 µM, first compound 1 µM
[17] = second compound 0.316 µM, first compound 3.16 µM
[18] = second compound 0.316 µM, first compound 10 µM
[19] = second compound 1 µM, first compound 0.0316 µM
[20] = second compound 1 µM, first compound 0.1 µM
[21] = second compound 1 µM, first compound 0.316 µM
[22] = second compound 1 µM, first compound 1 µM
[23] = second compound 1 µM, first compound 3.16 µM
[24] = second compound 1 µM, first compound 10 µM
[25] = second compound 3.16 µM, first compound 0.0316 µM
[26] = second compound 3.16 µM, first compound 0.1 µM
[27] = second compound 3.16 µM, first compound 0.316 µM
[28] = second compound 3.16 µM, first compound 1 µM
[29] = second compound 3.16 µM, first compound 3.16 µM
[30] = second compound 3.16 µM, first compound 10 µM
[31] = second compound 10 µM, first compound 0.0316 µM
[32] = second compound 10 µM, first compound 0.1 µM
[33] = second compound 10 µM, first compound 0.316 µM
[34] = second compound 10 µM, first compound 1 µM
[35] = second compound 10 µM, first compound 3.16 µM
[36] = second compound 10 µM, first compound 10 µM
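Note: spheroids exposed to the agents for seven days before readout.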
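Throughout, for viability, T/C: percent viability relative to DMSO vehicle control wells = 100%.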

COc1ccc([C@@H](O)c2cc(-c3ncnc4cc(N5CCOCC5)ccc34)c(F)cc2Cl)nn1 + CN(C)c1ccc(Nc2c3ccc(NC(=O)CCN4CCCC4)cc3nc3cc(NC(=O)CCN4CCCC4)ccc23)cc1
IC50 (second compound 0.0316 µM): > 10 µM | IC50 (second compound 0.1 µM): > 10 µM | IC50 (second compound 0.316 µM): 9.57 µM | IC50 (second compound 1 µM): > 10 µM | IC50 (second compound 3.16 µM): > 10 µM | IC50 (second compound 10 µM): > 10 µM | viability, T/C [1]: 105% | viability, T/C [2]: 116% | viability, T/C [3]: 104% | viability, T/C [4]: 96.6% | viability, T/C [5]: 85.9% | viability, T/C [6]: 72.5% | viability, T/C [7]: 105% | viability, T/C [8]: 124% | viability, T/C [9]: 98.3% | viability, T/C [10]: 108% | viability, T/C [11]: 106% | viability, T/C [12]: 61.6% | viability, T/C [13]: 96.8% | viability, T/C [14]: 94.5% | viability, T/C [15]: 90% | viability, T/C [16]: 106% | viability, T/C [17]: 96.4% | viability, T/C [18]: 48.1% | viability, T/C [19]: 124% | viability, T/C [20]: 111% | viability, T/C [21]: 106% | viability, T/C [22]: 106% | viability, T/C [23]: 92.6% | viability, T/C [24]: 59.1% | viability, T/C [25]: 96.5% | viability, T/C [26]: 126% | viability, T/C [27]: 113% | viability, T/C [28]: 93.1% | viability, T/C [29]: 117% | viability, T/C [30]: 68.5% | viability, T/C [31]: 123% | viability, T/C [32]: 112% | viability, T/C [33]: 97.5% | viability, T/C [34]: 106% | viability, T/C [35]: 88.9% | viability, T/C [36]: 50.8%

Nc1ccn(C2OC(CO)C(O)C2(F)F)c(=O)n1 (stereo unspecified) + Cc1[nH]c2ccc(F)cc2c1-c1nc2c3cccnc3c3ncccc3c2[nH]1
IC50 (second compound 0.0316 µM): > 10 µM | IC50 (second compound 0.1 µM): 6.46 µM | IC50 (second compound 0.316 µM): > 10 µM | IC50 (second compound 1 µM): > 10 µM | IC50 (second compound 3.16 µM): > 10 µM | IC50 (second compound 10 µM): > 10 µM | viability, T/C [1]: 112% | viability, T/C [2]: 78.3% | viability, T/C [3]: 77.8% | viability, T/C [4]: 74.3% | viability, T/C [5]: 68.1% | viability, T/C [6]: 54.6% | viability, T/C [7]: 128% | viability, T/C [8]: 94.5% | viability, T/C [9]: 63.7% | viability, T/C [10]: 64.5% | viability, T/C [11]: 56.5% | viability, T/C [12]: 59.6% | viability, T/C [13]: 116% | viability, T/C [14]: 99.5% | viability, T/C [15]: 59.8% | viability, T/C [16]: 70.5% | viability, T/C [17]: 47.8% | viability, T/C [18]: 66.9% | viability, T/C [19]: 117% | viability, T/C [20]: 112% | viability, T/C [21]: 72.4% | viability, T/C [22]: 49% | viability, T/C [23]: 60.6% | viability, T/C [24]: 74% | viability, T/C [25]: 96.4% | viability, T/C [26]: 97% | viability, T/C [27]: 70.8% | viability, T/C [28]: 58.1% | viability, T/C [29]: 55.4% | viability, T/C [30]: 52.2% | viability, T/C [31]: 102% | viability, T/C [32]: 103% | viability, T/C [33]: 62.9% | viability, T/C [34]: 45.6% | viability, T/C [35]: 59% | viability, T/C [36]: 49%

COc1ccc([C@@H](O)c2cc(-c3ncnc4cc(N5CCOCC5)ccc34)c(F)cc2Cl)nn1 + Cc1[nH]c2ccc(F)cc2c1-c1nc2c3cccnc3c3ncccc3c2[nH]1
IC50 (second compound 0.0316 µM): > 10 µM | IC50 (second compound 0.1 µM): > 10 µM | IC50 (second compound 0.316 µM): 8.51 µM | IC50 (second compound 1 µM): 9.05 µM | IC50 (second compound 3.16 µM): 8.89 µM | IC50 (second compound 10 µM): 7.15 µM | viability, T/C [1]: 97.4% | viability, T/C [2]: 113% | viability, T/C [3]: 108% | viability, T/C [4]: 84.6% | viability, T/C [5]: 83.8% | viability, T/C [6]: 57.7% | viability, T/C [7]: 92% | viability, T/C [8]: 97.3% | viability, T/C [9]: 109% | viability, T/C [10]: 86.9% | viability, T/C [11]: 77.6% | viability, T/C [12]: 51% | viability, T/C [13]: 82.2% | viability, T/C [14]: 108% | viability, T/C [15]: 107% | viability, T/C [16]: 83.4% | viability, T/C [17]: 111% | viability, T/C [18]: 42.1% | viability, T/C [19]: 85.3% | viability, T/C [20]: 92.5% | viability, T/C [21]: 106% | viability, T/C [22]: 98.9% | viability, T/C [23]: 75.9% | viability, T/C [24]: 47.6% | viability, T/C [25]: 96.3% | viability, T/C [26]: 120% | viability, T/C [27]: 87.8% | viability, T/C [28]: 95% | viability, T/C [29]: 97.1% | viability, T/C [30]: 44.6% | viability, T/C [31]: 121% | viability, T/C [32]: 93.3% | viability, T/C [33]: 100% | viability, T/C [34]: 93.9% | viability, T/C [35]: 82.8% | viability, T/C [36]: 36.9%
